Measurements reported in the NIST ThermoML archive (doi:10.1021/je900570e).
Numbers after ± are expanded uncertainties.

Test: xn = mol fraction of the nth substance listed
Conditions: Liquid; for viscosity / speed of sound: 101 kPa; for viscosity: Capillary tube (Ostwald / Ubbelohde) method; for speed of sound: Frequency=2 MHz, Pulse-echo method; for mass density: 101.33 kPa, Vibrating tube method

N#CCc1ccccc1 [benzeneacetonitrile] + ClC(Cl)=C(Cl)Cl
Conditions | mass density, 303.15 K [kg/m3] | mass density, 308.15 K [kg/m3] | mass density, 313.15 K [kg/m3] | speed of sound, 303.15 K [m/s] | speed of sound, 308.15 K [m/s] | speed of sound, 313.15 K [m/s] | viscosity, 303.15 K [mPa·s] | viscosity, 308.15 K [mPa·s] | viscosity, 313.15 K [mPa·s]
x1 = 0.0231 | 1591.9 ± 0.8 | 1583 ± 0.8 | 1575.7 ± 0.8 | 1037.5 ± 6.3 | 1024.4 ± 6.3 | 1010.5 ± 6.2 | 0.8124 ± 0.012 | 0.7752 ± 0.012 | 0.746 ± 0.012
x1 = 0.1322 | 1520.1 ± 0.8 | 1512.1 ± 0.8 | 1505.3 ± 0.8 | 1082.9 ± 6.6 | 1070.9 ± 6.5 | 1060.1 ± 6.5 | 0.884 ± 0.012 | 0.8382 ± 0.012 | 0.8001 ± 0.012
x1 = 0.249 | 1445.2 ± 0.9 | 1438 ± 0.9 | 1431.6 ± 0.8 | 1133.9 ± 6.9 | 1123.3 ± 6.9 | 1113.4 ± 6.8 | 0.9577 ± 0.013 | 0.9171 ± 0.013 | 0.868 ± 0.013
x1 = 0.37 | 1369.8 ± 0.9 | 1363.1 ± 0.9 | 1357.1 ± 0.9 | 1188.9 ± 7.3 | 1178.8 ± 7.2 | 1168.9 ± 7.2 | 1.06 ± 0.014 | 0.9982 ± 0.014 | 0.9342 ± 0.013
x1 = 0.4713 | 1308.3 ± 0.9 | 1302 ± 0.9 | 1296.2 ± 0.9 | 1236.8 ± 7.6 | 1226.7 ± 7.5 | 1216.8 ± 7.5 | 1.159 ± 0.015 | 1.077 ± 0.014 | 1.003 ± 0.014
x1 = 0.5767 | 1245.7 ± 0.9 | 1239.8 ± 0.9 | 1234.3 ± 0.9 | 1288.5 ± 7.9 | 1278.5 ± 7.9 | 1268.9 ± 7.8 | 1.269 ± 0.016 | 1.172 ± 0.015 | 1.096 ± 0.015
x1 = 0.7051 | 1171.4 ± 0.9 | 1166.1 ± 0.9 | 1160.8 ± 0.9 | 1355 ± 8.3 | 1345 ± 8.3 | 1335.7 ± 8.2 | 1.413 ± 0.018 | 1.294 ± 0.017 | 1.207 ± 0.016
x1 = 0.8386 | 1096.5 ± 0.9 | 1091.6 ± 0.9 | 1086.6 ± 0.9 | 1428 ± 8.8 | 1419.2 ± 8.7 | 1409.3 ± 8.7 | 1.571 ± 0.02 | 1.43 ± 0.019 | 1.329 ± 0.018
x1 = 0.972 | 1023.9 ± 0.9 | 1019.2 ± 0.9 | 1014.5 ± 0.9 | 1504.1 ± 9.3 | 1497.9 ± 9.2 | 1486.1 ± 9.2 | 1.726 ± 0.023 | 1.57 ± 0.021 | 1.458 ± 0.02
x1 = 1 | 1008.8 ± 0.9 | 1004.1 ± 0.8 | 999.5 ± 0.8 | 1519.2 ± 9.4 | 1512.9 ± 9.3 | 1503.4 ± 9.3 | 1.761 ± 0.023 | 1.602 ± 0.021 | 1.489 ± 0.02
